The record followed here is US8952034B2, “Fused heterocyclic compounds as ion channel modulators” (Gilead Sciences, Inc., priority 2009, dated 2015).

The target of the experiment is wild-type human cardiac sodium channel, hNav1.5 (Homo sapiens, UniProt Q14524). Kind of experiment: Late INa screening assay (automated whole cell patch clamp, PatchXpress). Format: cell-based. The settings on record: HEK293 cells expressing hNav1.5, late INa generated with 10 μM Tefluthrin (or 50 nM ATX II); for inhibition at 10 µM: compound at 10 μM, read-out: LateINa_10 uM (percent block of late INa); for inhibition at 1 µM: compound at 1 μM, read-out: LateINa_1 uM (percent block of late INa). How it is done: The late sodium current (Late INa) and peak sodium current (Peak INa) assays are performed on an automated electrophysiology platform, PatchXpress 7000A (MDS Analytical Technologies, Sunnyvale, Calif.), which uses the whole cell patch clamp technique to measure currents through the cell membrane of up to 16 cells at a time. The assay uses an HEK293 (human embryonic kidney) cell line heterologously expressing the wild-type human cardiac sodium channel, hNav1.5, purchased from Millipore (Billerica, Mass.). No beta subunits were coexpressed with the Na channel alpha subunit. Cells are maintained with standard tissue culture procedures and stable channel expression is maintained with 400 μg/ml Geneticin in the culture medium. […] Experiments are carried out at 24-27° C.
For both the Late INa and Peak INa assays, series resistance compensation is set to 50% and whole-cell compensation is performed automatically. […] Currents through open sodium channels are automatically recorded and stored in the DataXpress2 database (MDS Analytical Technologies, Sunnyvale, Calif.). Analysis is performed using DataXpress2 analysis software and data are compiled in Excel.
Compound stocks are routinely made in glass vials to 10 mM in dimethyl sulfoxide (DMSO). In some cases, when compounds are not soluble in DMSO, they are made in 100% ethanol. Stocks are sonicated as necessary. The extracellular solution for screening Late INa is composed of: 140 mM NaCl, 4 mM KCl, 1.8 mM CaCl2, 0.75 mM MgCl2, and 5 mM HEPES with pH adjusted to 7.4 using NaOH. The extracellular solution for screening Peak INa is composed of: 20 mM NaCl, 120 mM N-methyl-D glucamine, 4 mM KCl, 1.8 mM CaCl2, 0.75 mM MgCl2, and 5 mM HEPES with pH adjusted to 7.4 using HCl. The intracellular solution used to perfuse the inside of the cells for both the Late INa and Peak INa assays contains: 120 mM CsF, 20 mM CsCl, 5 mM EGTA, 5 mM HEPES and pH adjusted to 7.4 with CsOH. […] The 0Na extracellular solution used at the end of each experiment for the Late INa and Peak INa assays to measure baseline current contains: 140 mM N-methyl-D-glucamine; 4 mM KCl; 1.8 mM CaCl2; 0.75 mM MgCl2; 5 mM HEPES and pH was adjusted to 7.4 with HCl.
For the Late INa assay, sodium channels are activated every 10 seconds (0.1 Hz) by depolarizing the cell membrane to −20 mV for 250 milliseconds (ms) from a holding potential of −120 mV. In response to a −20 mV voltage step, typical Nav1.5 sodium currents activate rapidly to a peak negative current and then inactivate nearly completely within […].
All compounds are tested to determine their activity in blocking the late sodium current. Late INa current is generated by adding 10 μM Tefluthrin (pyrethroid) to the extracellular solution while recording Na currents For some experiments, 50 nM ATX II (sea anemone toxin), another late INa activator, was used to generate the late component. […] After establishing the whole cell recording configuration, late INa activators are added to each well 4 times over a 16-17 minute period so that the late component of the Na current reaches a stable value. […] Measurements are made at the end of exposure to the third compound addition and values are normalized to the current level when all Na^+ is removed from the extracellular solution after two additions of 0Na-ECF. Results are reported as percent block of late INa
A general note: The patch-clamp technique gives a direct electrical read-out from membranes.

wild-type human cardiac sodium channel, hNav1.5, sequence (Q14524 whole entry): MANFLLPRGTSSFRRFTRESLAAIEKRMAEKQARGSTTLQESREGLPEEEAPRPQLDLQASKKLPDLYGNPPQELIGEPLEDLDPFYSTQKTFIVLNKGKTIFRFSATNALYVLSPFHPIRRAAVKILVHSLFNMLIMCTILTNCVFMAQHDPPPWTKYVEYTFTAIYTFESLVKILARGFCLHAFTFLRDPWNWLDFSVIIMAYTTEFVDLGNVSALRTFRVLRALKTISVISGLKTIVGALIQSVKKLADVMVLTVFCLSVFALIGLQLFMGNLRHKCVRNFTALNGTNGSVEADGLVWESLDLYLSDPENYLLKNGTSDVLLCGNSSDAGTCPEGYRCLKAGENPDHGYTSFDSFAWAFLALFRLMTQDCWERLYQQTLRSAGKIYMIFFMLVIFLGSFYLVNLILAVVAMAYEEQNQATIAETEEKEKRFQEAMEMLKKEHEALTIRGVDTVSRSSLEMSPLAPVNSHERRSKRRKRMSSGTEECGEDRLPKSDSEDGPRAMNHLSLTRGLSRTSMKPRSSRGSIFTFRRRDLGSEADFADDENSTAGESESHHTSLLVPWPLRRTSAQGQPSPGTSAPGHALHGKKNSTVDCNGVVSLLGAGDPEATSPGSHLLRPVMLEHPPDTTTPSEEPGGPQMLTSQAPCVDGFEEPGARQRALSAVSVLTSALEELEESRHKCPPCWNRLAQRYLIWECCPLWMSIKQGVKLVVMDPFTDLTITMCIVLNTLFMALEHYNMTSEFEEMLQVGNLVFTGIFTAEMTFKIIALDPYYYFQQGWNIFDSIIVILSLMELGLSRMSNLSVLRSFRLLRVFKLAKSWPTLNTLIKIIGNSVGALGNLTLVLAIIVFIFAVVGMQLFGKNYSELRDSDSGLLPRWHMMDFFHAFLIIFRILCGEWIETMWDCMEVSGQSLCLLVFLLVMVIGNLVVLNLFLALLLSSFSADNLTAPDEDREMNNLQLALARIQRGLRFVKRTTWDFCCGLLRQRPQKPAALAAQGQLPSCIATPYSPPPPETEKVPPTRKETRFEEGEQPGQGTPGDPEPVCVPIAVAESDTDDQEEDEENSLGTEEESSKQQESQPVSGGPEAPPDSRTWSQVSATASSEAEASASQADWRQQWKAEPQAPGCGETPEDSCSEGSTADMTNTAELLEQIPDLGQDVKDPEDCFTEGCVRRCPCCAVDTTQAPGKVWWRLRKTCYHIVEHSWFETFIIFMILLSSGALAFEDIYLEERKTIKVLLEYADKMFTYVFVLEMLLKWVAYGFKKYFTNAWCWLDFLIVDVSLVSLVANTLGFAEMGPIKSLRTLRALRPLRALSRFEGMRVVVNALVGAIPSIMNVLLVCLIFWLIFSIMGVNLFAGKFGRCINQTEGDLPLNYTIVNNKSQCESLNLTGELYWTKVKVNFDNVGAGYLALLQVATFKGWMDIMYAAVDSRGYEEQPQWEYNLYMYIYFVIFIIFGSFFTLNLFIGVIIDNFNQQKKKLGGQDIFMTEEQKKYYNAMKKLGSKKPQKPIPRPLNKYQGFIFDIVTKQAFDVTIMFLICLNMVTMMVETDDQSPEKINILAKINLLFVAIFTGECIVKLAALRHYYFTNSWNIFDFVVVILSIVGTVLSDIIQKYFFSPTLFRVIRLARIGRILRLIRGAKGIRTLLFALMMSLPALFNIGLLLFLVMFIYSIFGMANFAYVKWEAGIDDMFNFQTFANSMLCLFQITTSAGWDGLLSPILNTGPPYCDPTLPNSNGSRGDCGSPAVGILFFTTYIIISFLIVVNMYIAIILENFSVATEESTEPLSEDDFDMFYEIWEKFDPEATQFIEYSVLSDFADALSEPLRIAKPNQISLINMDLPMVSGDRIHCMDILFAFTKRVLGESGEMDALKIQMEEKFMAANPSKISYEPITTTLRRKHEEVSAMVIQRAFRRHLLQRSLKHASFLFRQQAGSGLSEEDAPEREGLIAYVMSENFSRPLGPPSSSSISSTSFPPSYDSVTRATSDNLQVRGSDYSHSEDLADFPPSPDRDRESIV

As for `COc1ccc(-c2ccc3nnc(-c4ccc(C#N)cc4)n3n2)cc1` [BHN-44, 4-[6-(4-methoxyphenyl)[1,2,4]triazolo[4,3-b]pyridazin-3-yl]benzonitrile], the inhibition at 10 µM amounted to 15%.

On to `COc1ccc(-c2ccc3nnc(-c4cccc(C#N)c4)n3n2)cc1` [BHN-45, 3-[6-(4-methoxyphenyl)[1,2,4]triazolo[4,3-b]pyridazin-3-yl]benzonitrile], for which the inhibition at 10 µM turned out to be 36.3%.

Consider `COC(=O)c1ccc(-c2ccc3nnc(C(F)(F)F)n3c2)cc1` [BHN-46, methyl 4-[3-(trifluoromethyl)[1,2,4]triazolo[4,3-a]pyridin-6-yl]benzoate], for which the inhibition at 10 µM amounted to 53.9%.

As to `CS(=O)(=O)c1ccc(-c2nnc3ccc(-c4ccc(Oc5ccccc5)cc4)nn23)cc1` [BHN-47, 3-[4-(methylsulfonyl)phenyl]-6-(4-phenoxyphenyl)[1,2,4]triazolo[4,3-b]pyridazine], the inhibition at 10 µM came to 50.7%.

On to `CC(C)(O)c1ccc(-c2ccc3nnc(C(F)(F)F)n3c2)cc1` [BHN-48, 2-{4-[3-(trifluoromethyl)[1,2,4]triazolo[4,3-a]pyridin-6-yl]phenyl}propan-2-ol], for which the inhibition at 10 µM was 18.9%.

`c1ccc(Oc2ccc(-c3ccc4nnc(-c5ccc(-c6nn[nH]n6)cc5)n4n3)cc2)cc1` [BHN-50, 6-(4-phenoxyphenyl)-3-[4-(2H-tetrazol-5-yl)phenyl][1,2,4]triazolo[4,3-b]pyridazine]: the inhibition at 10 µM was 31%.

On to `N#Cc1cccc(-c2nnc3ccc(-c4ccc(F)cc4)nn23)c1` [BHN-51, 3-[6-(4-fluorophenyl)[1,2,4]triazolo[4,3-b]pyridazin-3-yl]benzonitrile], for which the inhibition at 10 µM came out at 40.5%.

In the case of `Nc1cc(-c2ccc(OC(F)(F)F)cc2)cn2c(-c3ccccc3)nnc12` [BHN-52, 3-phenyl-6-[4-(trifluoromethoxy)phenyl][1,2,4]triazolo[4,3-a]pyridin-8-amine], the inhibition at 10 µM was found to be 44.9%.

Turning to `FC(F)(F)Oc1ccc(-c2ccc3nnc(-c4ccc(OC(F)(F)F)cc4)n3c2)cc1` [BHN-55, 3,6-bis[4-(trifluoromethoxy)phenyl][1,2,4]triazolo[4,3-a]pyridine], the inhibition at 1 µM was 89.1% and the inhibition at 10 µM came out at 90.7%.

For `FC(F)(F)c1nnc2ccc(-c3ccc(-c4ccccc4)cc3)cn12` [BHN-57, 6-(biphenyl-4-yl)-3-(trifluoromethyl)[1,2,4]triazolo[4,3-a]pyridine], the inhibition at 1 µM worked out at 45.8% and the inhibition at 10 µM amounted to 39.5%.

Regarding `COC(=O)/C=C/c1nc(C(F)(F)F)n2cc(-c3ccc(OC(F)(F)F)cc3)ccc12` [BHN-58, methyl (2E)-3-{6-[4-(trifluoromethoxy)phenyl]-3-(trifluoromethyl)imidazo[1,5-a]pyridin-1-yl}prop-2-enoate], the inhibition at 10 µM is 27.6%.

On to `Cn1ncc2cc(-c3ccc4nnc(C(F)(F)F)n4c3)ccc21` [BHN-59, 6-(1-methyl-1H-indazol-5-yl)-3-(trifluoromethyl)[1,2,4]triazolo[4,3-a]pyridine], for which the inhibition at 10 µM stood at 39.8%.

Take `CC(C)(O)c1nnc2ccc(-c3ccc(Oc4ccccc4)cc3)nn12` [BHN-60, 2-[6-(4-phenoxyphenyl)[1,2,4]triazolo[4,3-b]pyridazin-3-yl]propan-2-ol]: the inhibition at 10 µM came out at 48.6%.

Regarding `FC(F)(F)c1nnc2ccc(-c3ccc(-n4cncn4)cc3)cn12` [BHN-61, 6-[4-(1H-1,2,4-triazol-1-yl)phenyl]-3-(trifluoromethyl)[1,2,4]triazolo[4,3-a]pyridine], the inhibition at 10 µM stood at 23.5%.

As for `Fc1ccc(Oc2ccc(-c3ccc4nnc(C(F)(F)F)n4c3)cc2)cc1` [BHN-64, 6-[4-(4-fluorophenoxy)phenyl]-3-(trifluoromethyl)[1,2,4]triazolo[4,3-a]pyridine], the inhibition at 1 µM was found to be 38.2% and the inhibition at 10 µM was found to be 69.6%.

`FC(F)(F)c1nnc2ccc(-c3ccc(Oc4ccc(Cl)cc4)cc3)cn12` [BHN-65, 6-[4-(4-chlorophenoxy)phenyl]-3-(trifluoromethyl)[1,2,4]triazolo[4,3-a]pyridine]: the inhibition at 1 µM is 55.6% and the inhibition at 10 µM came to 85.7%.

Turning to `CC(C)(C#N)c1ccc(-c2ccc3nnc(C(F)(F)F)n3c2)cc1` [BHN-66, 2-methyl-2-{4-[3-(trifluoromethyl)[1,2,4]triazolo[4,3-a]pyridin-6-yl]phenyl}propanenitrile], the inhibition at 1 µM stood at 33.2% and the inhibition at 10 µM was 70.7%.

Turning to `CC(C)S(=O)(=O)c1ccc(-c2ccc3nnc(C(F)(F)F)n3c2)cc1` [BHN-68, 6-[4-(propan-2-ylsulfonyl)phenyl]-3-(trifluoromethyl)[1,2,4]triazolo[4,3-a]pyridine], the inhibition at 10 µM was 22%.

Consider `Cc1nnc2c(N)cc(-c3ccc(OC(F)(F)F)cc3)cn12` [BHN-69, 3-methyl-6-[4-(trifluoromethoxy)phenyl][1,2,4]triazolo[4,3-a]pyridin-8-amine], for which the inhibition at 10 µM amounted to 32.1%.

Take `Cc1cc(OC(F)(F)F)ccc1-c1cc(N)c2nnc(C)n2c1` [BHN-70, 3-methyl-6-[2-methyl-4-(trifluoromethoxy)phenyl][1,2,4]triazolo[4,3-a]pyridin-8-amine]: the inhibition at 10 µM came out at 40.4%.

Regarding `Cc1nnc(-c2ccc(-c3ccc4nnc(C(F)(F)F)n4c3)cc2)o1` [BHN-71, 6-[4-(5-methyl-1,3,4-oxadiazol-2-yl)phenyl]-3-(trifluoromethyl)[1,2,4]triazolo[4,3-a]pyridine], the inhibition at 10 µM was 20.5%.

Consider `FC(F)(F)Oc1ccc(-c2ccc3nnc(C(F)(F)F)n3c2)cc1CN1CCOCC1` [BHN-72, 6-[3-(morpholin-4-ylmethyl)-4-(trifluoromethoxy)phenyl]-3-(trifluoromethyl)[1,2,4]triazolo[4,3-a]pyridine], for which the inhibition at 10 µM is 26.7%.

For the compound `NS(=O)(=O)c1ccc(-c2nnc3ccc(-c4ccc(OC(F)(F)F)cc4)cn23)cc1` [BHN-73, 4-{6-[4-(trifluoromethoxy)phenyl][1,2,4]triazolo[4,3-a]pyridin-3-yl}benzenesulfonamide], the inhibition at 10 µM came to 17.5%.

In the case of `COCC(F)(F)c1nnc2ccc(-c3ccc(OC(F)(F)F)cc3)cn12` [BHN-74, 3-(1,1-difluoro-2-methoxyethyl)-6-[4-(trifluoromethoxy)phenyl][1,2,4]triazolo[4,3-a]pyridine], the inhibition at 1 µM worked out at 46.9% and the inhibition at 10 µM was determined as 67%.

Regarding `CS(=O)(=O)Nc1ccc(-c2nnc3ccc(-c4ccc(OC(F)(F)F)cc4)cn23)cc1` [BHN-75, N-(4-{6-[4-(trifluoromethoxy)phenyl][1,2,4]triazolo[4,3-a]pyridin-3-yl}-phenyl)methanesulfonamide], the inhibition at 10 µM was 30.1%.

Take `CC(=O)Nc1cc(-c2ccc(OC(F)(F)F)cc2C)cn2c(C)nnc12` [BHN-76, N-{3-methyl-6-[2-methyl-4-(trifluoromethoxy)phenyl][1,2,4]triazolo[4,3-a]pyridin-8-yl}acetamide]: the inhibition at 10 µM is 31.9%.

For the compound `NC(=O)c1ccc(-c2nnc3ccc(-c4ccc(OC(F)(F)F)cc4)cn23)cc1` [BHN-79, 4-{6-[4-(trifluoromethoxy)phenyl][1,2,4]triazolo[4,3-a]pyridin-3-yl}benzamide], the inhibition at 10 µM came to 19.3%.

With `CCOC(=O)c1cccc(-c2ccc3nnc(-c4cccc(C(=O)OCC)c4)n3c2)c1` [BHN-80, diethyl 3,3′-[1,2,4]triazolo[4,3-a]pyridine-3,6-diyldibenzoate], the inhibition at 10 µM was found to be 59%.
